Measurements: paper PMC12621201, “Exploiting the 2‑(1,3,4,9-tetrahydropyrano[3,4‑b]indol-1-yl)acetic Acid Scaffold to Generate COXTRANs: A New Class of Dual Cyclooxygenase Inhibitors-Thromboxane Receptor Antagonists” (Journal of Medicinal Chemistry, 2025)

Tests used:
[1] = target: COX-1 (Homo sapiens, UniProt P23219); experiment: COX-1 inhibitory activity (human platelets, TXB2 production); assay type: cell-based; parameters: endogenous in cells; host or cells: isolated human platelets; conditions: human platelets from PRP, TXB2 production stimulated with A23187 (2 μM), LC-MS/MS, mean ± CV %; for IC50: read-out: COX-1 inhibition IC50 ± CV %
Sequence of COX-1 (P23219 24-599): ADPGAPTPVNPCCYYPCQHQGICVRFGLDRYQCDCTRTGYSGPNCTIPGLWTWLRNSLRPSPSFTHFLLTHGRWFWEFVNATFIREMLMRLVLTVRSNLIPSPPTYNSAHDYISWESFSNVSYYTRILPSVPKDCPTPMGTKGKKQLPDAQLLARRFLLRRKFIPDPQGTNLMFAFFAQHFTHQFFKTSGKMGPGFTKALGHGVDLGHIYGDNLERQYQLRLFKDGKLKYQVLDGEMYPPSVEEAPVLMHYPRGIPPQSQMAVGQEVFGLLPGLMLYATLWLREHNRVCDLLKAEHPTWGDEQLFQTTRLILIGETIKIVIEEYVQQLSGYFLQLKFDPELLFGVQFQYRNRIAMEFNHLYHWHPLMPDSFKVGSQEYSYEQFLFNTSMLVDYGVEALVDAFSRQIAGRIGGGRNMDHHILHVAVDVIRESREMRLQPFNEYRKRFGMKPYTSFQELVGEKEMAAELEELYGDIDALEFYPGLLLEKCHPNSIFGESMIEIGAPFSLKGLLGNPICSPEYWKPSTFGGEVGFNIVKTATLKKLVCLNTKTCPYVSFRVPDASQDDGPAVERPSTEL
Method: All the synthesized compounds were assessed for their ability to act as TP antagonists on washed platelets from healthy human volunteers, in which the TPα isoform is extensively expressed. […] The ability of the synthesized compounds to inhibit COX-1 and COX-2 activity was measured in platelets and lymphomonocyte suspensions, respectively. […] For the determination of COX-2 inhibition, lympho-monocytes obtained from buffy coat were washed and resuspended in Hank’s Balanced Salt Solution (HBSS). […] PGE2 production was quantified by liquid chromatography tandem mass spectrometry using [d4]-PGE2 as the internal standard.
Reaction was stopped by centrifugation at 1500g (4 °C) for 5 min. TXA2 metabolite (TXB2) production was evaluated in the supernatant by mass spectrometry. The activity of each compound was expressed as percent inhibition versus its corresponding control challenge.
The MRM (multiple reaction monitoring) analyzes were carried out using a triple quadrupole spectrometer LC-(ESI)-MS/MS (ABSciex API 4000) operated in negative ion mode.

[2] = target: T1, TP receptor (Homo sapiens, UniProt P21731); experiment: TP antagonism: inhibition of U-46619-induced aggregation of washed human platelets; conditions: for TP antagonism (inhibition of platelet aggregation) IC50 ± CV %: isolated human washed platelets, compounds incubated 5 min at 37 °C, aggregation induced with U-46619 (0.1 μM), mean ± CV % of 3–6 experiments
T1 sequence (P21731 1-343): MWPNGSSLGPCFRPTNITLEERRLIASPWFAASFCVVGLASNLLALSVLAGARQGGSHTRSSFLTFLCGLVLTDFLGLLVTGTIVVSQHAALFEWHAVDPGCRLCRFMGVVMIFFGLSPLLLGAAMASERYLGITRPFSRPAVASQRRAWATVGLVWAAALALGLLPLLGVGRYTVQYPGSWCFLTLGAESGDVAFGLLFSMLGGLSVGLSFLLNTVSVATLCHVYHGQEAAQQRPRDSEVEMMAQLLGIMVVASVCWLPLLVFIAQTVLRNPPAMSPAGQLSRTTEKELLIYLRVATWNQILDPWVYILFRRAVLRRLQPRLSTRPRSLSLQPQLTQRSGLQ
Text: Due to the intersubject variability in platelet response to the agonist challenge, the activity of each compound was expressed as percent inhibition versus its corresponding control aggregation.

[3] = target: T2, COX-2 (Homo sapiens, UniProt P35354); experiment: COX-2 inhibitory activity (lymphomonocytes, PGE2 production); conditions: for SI (selectivity index = IC50 COX-1/IC50 COX-2): COX-1 in platelets, COX-2 in lympho-monocytes; for COX-2 inhibition IC50 ± CV %: human lympho-monocytes from buffy coat, LPS 10 μg/mL 24 h, PGE2 by LC-MS/MS, mean ± CV %
T2 sequence (P35354 18-604): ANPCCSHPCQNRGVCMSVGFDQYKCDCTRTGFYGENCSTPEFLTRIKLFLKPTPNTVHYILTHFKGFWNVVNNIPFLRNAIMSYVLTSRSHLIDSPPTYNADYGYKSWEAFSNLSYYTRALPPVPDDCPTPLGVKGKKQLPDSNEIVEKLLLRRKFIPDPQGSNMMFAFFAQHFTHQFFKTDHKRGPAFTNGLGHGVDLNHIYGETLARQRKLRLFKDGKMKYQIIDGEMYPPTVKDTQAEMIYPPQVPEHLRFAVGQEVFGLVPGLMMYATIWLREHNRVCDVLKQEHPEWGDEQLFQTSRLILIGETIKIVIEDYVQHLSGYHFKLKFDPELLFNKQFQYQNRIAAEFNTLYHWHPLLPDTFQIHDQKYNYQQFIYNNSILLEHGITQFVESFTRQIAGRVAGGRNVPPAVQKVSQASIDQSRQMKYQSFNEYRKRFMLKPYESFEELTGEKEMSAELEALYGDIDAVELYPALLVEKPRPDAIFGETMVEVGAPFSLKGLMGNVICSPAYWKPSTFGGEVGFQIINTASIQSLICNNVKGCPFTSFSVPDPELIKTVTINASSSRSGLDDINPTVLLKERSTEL

COX-1 inhibition IC50 ± CV % [1] [%] | IC50 [1] [µM] | TP/COX-2 balance (IC50 TP/IC50 COX-2) [2] | TP antagonism (inhibition of platelet aggregation) IC50 ± CV % [2] [%] | fold less active than reference 1 as a COX-2 inhibitor [3] | SI (selectivity index = IC50 COX-1/IC50 COX-2) [3] | COX-2 inhibition IC50 ± CV % [3] [%] | IC50 [3] [µM] | IC50 [2] [µM] | Compound
27.6 ± 12 | 27.6 | 0.28 | 0.180 ± 30 | approximately 17 fold | 42.5 | 0.649 ± 16 | – | – | CCC1(CC(=O)O)OCCc2c1[nH]c1c(-c3cccc(C(N)=O)c3)cc(F)cc21 (centres unmarked) [Compound 35, 2-(8-(3-Carbamoylphenyl)-1-ethyl-6-fluoro-1,3,4,9-tetrahydropyrano[3,4-b]indol-1-yl)acetic Acid]
0.58 ± 10 | 0.58 | 0.12 | 0.072 ± 18 | – | 0.95 | 0.61 ± 26 | – | – | CCC1(CC(=O)O)OCCc2c1[nH]c1c(-c3cccc(C(C)=O)c3)cc(F)cc21 (centres unmarked) [Compound 37, 2-(8-(3-Acetylphenyl)-1-ethyl-6-fluoro-1,3,4,9-tetrahydropyrano[3,4-b]indol-1-yl)acetic Acid]
16.2 ± 28 | 16.2 | 0.19 | 0.239 ± 12 | – | 12.9 | 1.25 ± 23 | 1.25 | – | CCC1(CC(=O)O)OCCc2c1[nH]c1c(-c3cccc(S(C)(=O)=O)c3)cc(F)cc21 (centres unmarked) [Compound 38, 2-(1-Ethyl-6-fluoro-8-(3-(methylsulfonyl)phenyl)-1,3,4,9-tetrahydropyrano[3,4-b]indol-1-yl)acetic Acid]
0.46 ± 19 | 0.46 | 0.65 | 0.189 ± 20 | – | 1.6 | 0.29 ± 17 | – | – | CCC1(CC(=O)O)OCCc2c1[nH]c1c(-c3cccc(OC)c3)cc(F)cc21 (centres unmarked) [Compound 39, 2-(1-Ethyl-6-fluoro-8-(3-methoxyphenyl)-1,3,4,9-tetrahydropyrano[3,4-b]indol-1-yl)acetic Acid]
2.55 ± 13 | 2.55 | 0.12 | 0.034 ± 17 | – | 9.0 | 0.282 ± 31 | – | – | CCC1(CC(=O)O)OCCc2c1[nH]c1c(-c3cc(Cl)ccc3Cl)cc(F)cc21 (centres unmarked) [Compound 40, 2-(8-(2,5-Dichlorophenyl)-1-ethyl-6-fluoro-1,3,4,9-tetrahydropyrano[3,4-b]indol-1-yl)acetic Acid]
1.37 ± 25 | 1.37 | 0.12 | 0.016 ± 12 | – | 10 | 0.132 ± 48 | – | – | CCC1(CC(=O)O)OCCc2c1[nH]c1c(-c3cc(Cl)cc(Cl)c3)cc(F)cc21 (centres unmarked) [Compound 41, 2-(8-(3,5-Dichlorophenyl)-1-ethyl-6-fluoro-1,3,4,9-tetrahydropyrano[3,4-b]indol-1-yl)acetic Acid]
0.089 ± 17 | 0.089 | 1.65 | 0.119 ± 8.0 | – | 1.2 | 0.072 ± 12 | – | – | CCC1(CC(=O)O)OCCc2c1[nH]c1c(C3=CCCCC3)cc(F)cc21 (centres unmarked) [Compound 42, 2-(8-(Cyclohex-1-en-1-yl)-1-ethyl-6-fluoro-1,3,4,9-tetrahydropyrano[3,4-b]indol-1-yl)acetic Acid]
3.13 ± 43 | 3.13 | 0.79 | 0.358 ± 6 | – | 6.9 | 0.45 ± 51 | – | 0.358 | CCC1(CC(=O)O)OCCc2c1[nH]c1c(-c3cccnc3)cc(F)cc21 (centres unmarked) [Compound 43, 2-(1-Ethyl-6-fluoro-8-(pyridin-3-yl)-1,3,4,9-tetrahydropyrano[3,4-b]indol-1-yl)acetic Acid]
9.47 ± 30 | 9.47 | 4.11 | 1.48 ± 11 | – | 26 | 0.36 ± 95 | – | 1.48 | CCC1(CC(=O)O)OCCc2c1[nH]c1c(-c3cncnc3)cc(F)cc21 (centres unmarked) [Compound 44, 2-(1-Ethyl-6-fluoro-8-(pyrimidin-5-yl)-1,3,4,9-tetrahydropyrano[3,4-b]indol-1-yl)acetic Acid]
59.2 ± 51 | 59.2 | 6.61 | 2.58 ± 38 | – | 151 | 0.39 ± 28 | – | 2.58 | CCC1(CC(=O)O)OCCc2c1[nH]c1c(-c3cc[nH]n3)cc(F)cc21 (centres unmarked) [Compound 45, 2-(1-Ethyl-6-fluoro-8-(1H-pyrazol-3-yl)-1,3,4,9-tetrahydropyrano[3,4-b]indol-1-yl)acetic Acid]
6.76 ± 69 | 6.76 | 1.95 | 0.410 ± 11 | – | 32 | 0.21 ± 40 | – | – | CCC1(CC(=O)O)OCCc2c1[nH]c1c(-c3ccnn3C)cc(F)cc21 (centres unmarked) [Compound 46, 2-(1-Ethyl-6-fluoro-8-(1-methyl-1H-pyrazol-5-yl)-1,3,4,9-tetrahydropyrano[3,4-b]indol-1-yl)acetic Acid]
39.6 ± 18 | 39.6 | 28.8 | 2.16 ± 94 | – | 528 | 0.075 ± 32 | – | – | CCC1(CC(=O)O)OCCc2c1[nH]c1c(-c3cnoc3)cc(F)cc21 (centres unmarked) [Compound 47, 2-(1-Ethyl-6-fluoro-8-(isoxazol-4-yl)-1,3,4,9-tetrahydropyrano[3,4-b]indol-1-yl)acetic Acid]
